Data as given in patent publication US8492374B2, “Azaazulene compounds” (Industrial Technology Research Institute, priority 2009, dated 2013).
pIC50: −log10 of the molar value.

Columns and labels:
[1] = molecular target: T1, c-KIT kinase (Homo sapiens, UniProt P10721); assay: c-KIT kinase DELFIA assay (HTScan c-KIT Kinase Assay Kit); assay type: biochemical; conditions: 20 uM ATP; for inhibition at 0.1 µM: 0.1 uM compound; for inhibition at 1 µM: 1 uM compound
T1 construct: human c-KIT (Thr544-Val976); GST (N); purchased Cell Signaling Technology HTScan c-KIT Kinase Assay Kit; host or cells: baculovirus expression system
T1 sequence (P10721 544-976): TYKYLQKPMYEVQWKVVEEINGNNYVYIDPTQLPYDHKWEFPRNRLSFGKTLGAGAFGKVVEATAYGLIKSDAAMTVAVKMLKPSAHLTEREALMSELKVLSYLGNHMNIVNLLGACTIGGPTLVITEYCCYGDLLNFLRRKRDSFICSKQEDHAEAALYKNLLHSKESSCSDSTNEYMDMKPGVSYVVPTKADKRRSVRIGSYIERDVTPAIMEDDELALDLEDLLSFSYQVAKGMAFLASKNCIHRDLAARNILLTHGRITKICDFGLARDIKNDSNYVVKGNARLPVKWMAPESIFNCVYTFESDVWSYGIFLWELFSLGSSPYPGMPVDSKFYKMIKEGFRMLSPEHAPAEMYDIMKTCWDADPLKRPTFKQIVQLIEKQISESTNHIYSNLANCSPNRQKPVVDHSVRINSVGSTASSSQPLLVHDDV
Protocol: (§1) Azaazulene Compounds of this invention were treated for their efficacy in inhibiting activities of FLT-3, c-KIT and KDR kinases by biochemical DELFIA (Dissociation Enhanced Lanthanide FIA) assays according to the procedure described below. The assays were conducted by, Division of Cell Engineering, Biomedical Engineering Research Laboratories, Industrial Technology Research Institute, Bldg. 53, 195, sec. 4, Chung Hsing Rd. Chutung, Hsinchu, Taiwan 310, R.O.C.
The c-KIT assay was conducted following the protocol described in Protocol for HTScan® c-KIT Kinase Assay Kit (Cell Signaling Technology®).

[2] = test system: MV4-11 (FLT3-ITD) cell line; assay: In vitro cell activity assay (MTT cell viability, 72 hours); assay type: cell-based; conditions: Homo sapiens, 72 hours at 37° C., 10,000 cells per well, read-out: IC50 against MV4-11
Protocol: Human MV4-11 (FLT3-ITD) cell line was obtained from American Tissue Culture Collection (ATCC number: CRL-9591). The cell line was cultured with RPMI 1640 containing 10% fetal bovine serum, 1 mmol/L sodium pyruvate and 10 mmol/L HEPES (pH 7.4). The cell was grown and maintained in a humidified atmosphere at 37° C. and 5% carbon dioxide.
MV4-11 cell was plated in 96-well microtiter plates (10,000 cells per well) and serial dilutions of indicated compounds were added. At the end of the incubation period (72 hours at 37° C.), cell viability was determined by a tetrazolium dye, MTT (3-(4,5-dimethylthiazol-2-yl)-2,5-diphenyl tetrazolium bromide) (Promega, Madison, Wis.). The formazan crystals were dissolved by DMSO, and the absorbance at a wavelength of 600 nm was recorded using an ELISA plate reader. IC50 values were calculated using nonlinear regression and defined as the concentration needed for a 50% reduction in absorbance of treated versus untreated control cells.

[3] = molecular target: T2, FLT-3 kinase (Homo sapiens, UniProt P36888); assay: FLT-3 kinase DELFIA assay (HTScan FLT-3 Kinase Assay Kit); assay type: biochemical; conditions: 20 uM ATP; for inhibition at 0.1 µM: 0.1 uM compound; for inhibition at 1 µM: 1 uM compound
T2 construct: human FLT-3 (Arg571-Ser993); GST (N); purchased Cell Signaling Technology HTScan FLT-3 Kinase Assay Kit; host or cells: baculovirus expression system
T2 sequence (P36888 571-993): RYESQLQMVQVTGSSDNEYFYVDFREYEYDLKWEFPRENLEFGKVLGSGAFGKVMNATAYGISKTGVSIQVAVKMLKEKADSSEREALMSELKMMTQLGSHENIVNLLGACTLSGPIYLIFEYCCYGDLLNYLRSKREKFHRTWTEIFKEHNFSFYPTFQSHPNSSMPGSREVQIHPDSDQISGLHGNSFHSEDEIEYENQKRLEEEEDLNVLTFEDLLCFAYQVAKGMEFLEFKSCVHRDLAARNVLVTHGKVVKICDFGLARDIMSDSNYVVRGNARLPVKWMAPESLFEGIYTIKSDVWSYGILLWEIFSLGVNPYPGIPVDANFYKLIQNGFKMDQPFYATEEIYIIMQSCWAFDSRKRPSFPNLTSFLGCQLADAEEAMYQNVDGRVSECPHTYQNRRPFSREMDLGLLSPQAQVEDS
Protocol: as §1
The FLT-3 assay was conducted following the protocol described in Protocol for HTScang FLT-3 Kinase Assay Kit (Cell Signaling Technology®).

| SMILES | inhibition at 0.1 µM [1] [%] | inhibition at 1 µM [1] [%] | pIC50 [2] | inhibition at 0.1 µM [3] [%] | inhibition at 1 µM [3] [%] |
| --- | --- | --- | --- | --- | --- |
| O=c1[nH]c2cccccc-2c1-c1nc2ccccc2[nH]1 [Compound A1, 3-(benzimidazol-2-yl)-1-azaazulen-2-one, reference compound] | 34.1 | 64.5 | ~6.00 | 11.5 | 59.4 |
| Nc1ncnc2[nH]c(-c3c4cccccc-4[nH]c3=O)nc12 [Compound B11] | 15.1 | 43.7 | 5.30 to 6.00 | 12.5 | 27.3 |
| COc1ccc2nc(-c3c4cccccc-4[nH]c3=O)cn2c1 [Compound B14] | 20.1 | 39.4 | 5.30 to 6.00 |  | 9.6 |
| O=c1[nH]c2cccccc-2c1-c1nc2cccnc2[nH]1 [Compound B15] | 8.5 | 43.1 | 5.30 to 6.00 | 8.6 | 18.1 |
| CN(C)CCCN(C)c1ccc2[nH]c(-c3c4cccccc-4[nH]c3=O)nc2c1 [Compound B21] | 10.8 | 55.4 | 6.37 | 20.1 | 63 |
| O=C(c1ccc2[nH]c(-c3c4cccccc-4[nH]c3=O)nc2c1)N1CCCN(c2ccncc2)CC1 [Compound B92] |  |  | 6.04 | 17.9 | 51.4 |
| O=c1[nH]c2cccccc-2c1-c1nc2cc(N3CCCN(c4ccncc4)CC3)ccc2[nH]1 [Compound B93] |  |  | 6.89 | 44.2 | 89.4 |
| O=c1[nH]c2cccccc-2c1-c1nc2cc(N3CCCN(c4cccc(Cl)n4)CC3)ccc2[nH]1 [Compound B96] |  |  | 5.30 to 6.00 | 10.9 | 35.7 |
| O=c1[nH]c2cccccc-2c1-c1nc2cc(N3CCCN(c4ncccn4)CC3)ccc2[nH]1 [Compound B98] |  |  | 6.38 | 17.8 | 69.5 |
| O=c1[nH]c2cccccc-2c1-c1nc2cc(N3CCCN(c4cnccn4)CC3)ccc2[nH]1 [Compound B99] |  |  | 6.22 | 17 | 51.8 |
| CN1CCN(S(=O)(=O)c2ccc3[nH]c(-c4c5cccccc-5[nH]c4=O)nc3c2)CC1 [Compound B112] |  |  | 5.30 to 6.00 | 9.5 | 21.3 |
| CN1CCCN(S(=O)(=O)c2ccc3[nH]c(-c4c5cccccc-5[nH]c4=O)nc3c2)CC1 [Compound B113] |  |  | 6.30 to 7.00 | 14.8 | 42 |
| O=C(c1ccccc1)c1ccc2[nH]c(-c3c4cccccc-4[nH]c3=O)nc2c1 [Compound B114] |  |  | 5.30 to 6.00 | 10 | 16.3 |
| O=c1[nH]c2cccccc-2c1-c1nc2cc(-n3ccnc3)ccc2[nH]1 [Compound B115] |  |  | 6.51 | 25.4 | 72.7 |
| O=C(Nc1ccc2[nH]c(-c3c4cccccc-4[nH]c3=O)nc2c1)Nc1cc(C(F)(F)F)ccc1F [Compound B119] |  |  | 6.30 to 7.00 | 32 | 44.6 |
| O=C(Nc1ccc2[nH]c(-c3c4cccccc-4[nH]c3=O)nc2c1)Nc1cc(F)ccc1F [Compound B120] |  |  | 6.17 | 10.2 | 10.1 |
| O=C(Nc1ccc(F)c(Cl)c1)Nc1ccc2[nH]c(-c3c4cccccc-4[nH]c3=O)nc2c1 [Compound B130] |  |  | 5.30 to 6.00 | 8.6 | 24 |
| O=C(Nc1ccc2[nH]c(-c3c4cccccc-4[nH]c3=O)nc2c1)Nc1ccccc1C(F)(F)F [Compound B131] |  |  | 5.30 to 6.00 | 7.9 | 7.3 |
| O=C(Nc1cccc(C(F)(F)F)c1)Nc1ccc2[nH]c(-c3c4cccccc-4[nH]c3=O)nc2c1 [Compound B132] |  |  | 6.24 | 47.5 | 72.4 |
| O=C(Nc1ccc(C(F)(F)F)cc1)Nc1ccc2[nH]c(-c3c4cccccc-4[nH]c3=O)nc2c1 [Compound B133] |  |  | 6.30 to 7.00 | 30.5 | 53.3 |
| O=C(Nc1cc(C(F)(F)F)cc(C(F)(F)F)c1)Nc1ccc2[nH]c(-c3c4cccccc-4[nH]c3=O)nc2c1 [Compound B134] |  |  | 6.17 | 36.8 | 57.3 |
| O=C(Nc1ccc2[nH]c(-c3c4cccccc-4[nH]c3=O)nc2c1)Nc1cc(C(F)(F)F)ccc1Cl [Compound B135] |  |  | 6.20 | 41.4 | 62 |
| O=C(Nc1ccc2[nH]c(-c3c4cccccc-4[nH]c3=O)nc2c1)Nc1ccc(Cl)cc1C(F)(F)F [Compound B136] |  |  | 5.30 to 6.00 | 21 | 70.8 |
| COc1ccccc1NC(=O)Nc1ccc2[nH]c(-c3c4cccccc-4[nH]c3=O)nc2c1 [Compound B137] |  |  | 7.00 to 7.30 | 14.3 | 19 |
| COc1cccc(NC(=O)Nc2ccc3[nH]c(-c4c5cccccc-5[nH]c4=O)nc3c2)c1 [Compound B138] |  |  | 6.14 | 35.6 | 58.1 |

The next lines start with the values.

| inhibition at 0.1 µM [1] [%] | inhibition at 1 µM [1] [%] | pIC50 [2] | inhibition at 0.1 µM [3] [%] | inhibition at 1 µM [3] [%] | SMILES |
| --- | --- | --- | --- | --- | --- |
|  |  | < 5.30 | 20 | 56.7 | O=C(O)CCC(=O)N1CCCN(c2ccc3[nH]c(-c4c5cccccc-5[nH]c4=O)nc3c2)CC1 [Compound B89] |
|  |  | 6.30 | 23 | 59.2 | CS(=O)(=O)N1CCCN(c2ccc3[nH]c(-c4c5cccccc-5[nH]c4=O)nc3c2)CC1 [Compound B90] |
|  |  | 6.06 | 14.3 | 42.5 | CN(C)S(=O)(=O)N1CCCN(c2ccc3[nH]c(-c4c5cccccc-5[nH]c4=O)nc3c2)CC1 [Compound B91] |
|  |  | 5.30 to 6.00 | 9.1 | 20.2 | Cc1ccc(N2CCCN(c3ccc4[nH]c(-c5c6cccccc-6[nH]c5=O)nc4c3)CC2)nn1 [Compound B100] |
|  |  | 7.40 | 46.8 | 90.7 | CN(C)C1CCN(c2ccc3[nH]c(-c4c5cccccc-5[nH]c4=O)nc3c2)CC1 [Compound B101] |
|  |  | 6.94 | 22.8 | 67.8 | O=c1[nH]c2cccccc-2c1-c1nc2cc(N3CCC(N4CCCCC4)CC3)ccc2[nH]1 [Compound B102] |
|  |  | 7.38 | 36.5 | 87.4 | O=c1[nH]c2cccccc-2c1-c1nc2cc(N3CCC(N4CCOCC4)CC3)ccc2[nH]1 [Compound B103] |
|  |  | 7.16 | 28.3 | 84.1 | O=c1[nH]c2cccccc-2c1-c1nc2cc(N3CCC(N4CCCC4)CC3)ccc2[nH]1 [Compound B104] |
|  |  | 6.75 | 38.7 | 86 | CN1CCN(C2CCN(c3ccc4[nH]c(-c5c6cccccc-6[nH]c5=O)nc4c3)CC2)CC1 [Compound B105] |
|  |  | 6.50 | 24.2 | 76.2 | CCC1CCN(c2ccc3[nH]c(-c4c5cccccc-5[nH]c4=O)nc3c2)CC1 [Compound B106] |
|  |  | 7.05 | 16 | 86.5 | NC(=O)C1CCN(c2ccc3[nH]c(-c4c5cccccc-5[nH]c4=O)nc3c2)CC1 [Compound B108] |
|  |  | ~6.00 | 17.3 | 35.2 | CCOCC1CCN(c2ccc3[nH]c(-c4c5cccccc-5[nH]c4=O)nc3c2)CC1 [Compound B109] |
|  |  | 6.77 | 24.5 | 75 | O=c1[nH]c2cccccc-2c1-c1nc2cc(N3CCOCC3)ccc2[nH]1 [Compound B111] |
